Literature values as cited in US20120071554A1, “DEUTERATED 2-PROPYLPENTANOIC ACID COMPOUNDS” (priority 2008, published 2012).

administered dose excreted in the urine as the glucuronide conjugate (adult patients on monotherapy): 30-50%
dose excreted as products of other oxidative mechanisms (adult patients on monotherapy): 15-20%
dose excreted as the products of mitochondrial beta-oxidation (adult patients on monotherapy): over 40%
dose excreted unchanged in the urine (in vivo): Less than 3%
increase of the valproate free-fraction (pediatric patients co-dosed with valproate and aspirin, inhibition of beta-oxidation pathway): 4 fold
Structure (SMILES): CCCC(CCC)C(=O)O [Valproate, sodium hydrogen bis(2-propylpentanoate)]
